# Columns and labels:
# [1] = tested on: murine antigen induced arthritis; test: murine antigen-induced arthritis, histological score; type: in vivo, mice; conditions: 15 mg/kg IP once per 24 hours, day 28
# Protocol: Antigen-induced arthritis was induced in mice. C57BL6/J male mice, aged 7-10 weeks old, were immunized on day 0 with 200 μg methylated BSA (mBSA) emulsified in 200 μl of Freund's complete adjuvant (FCA) injected subcutaneously into the flank skin. Mice were treated with compound 5, administered by intraperitoneal injection, once per 24 hours at a dose of 15 mg/kg body weight. After seven days, mice received 100 μg mBSA and 100 μl FCA by intradermal injection at the base of the tail. After a further 14 days, arthritis was induced by intra-articular injection of 30 μg mBSA in 10 μl of sterile saline into the left knee, the right knee being injected with sterile saline alone.
# Arthritis was analysed histologically at day 28 after first immunisation. Knee joints were dissected and fixed in 10% buffered formalin for 7 days. Fixed tissues were decalcified for 3 weeks in 15% ethylene-diamine-tetra-acetic acid (EDTA), dehydrated and embedded in paraffin. Sagittal sections (5 μm) of the knee joint were stained with Safranin-O and counterstained with fast green/iron hematoxylin. Histological sections were scored from 0 to 3 for four parameters: Synovitis was defined as hyper-cellularity of the synovium including pannus formation. Joint space exudate was identified as leukocytes, discretely or in aggregates, in the joint space. Cartilage degradation was defined as the loss of Safranin-O staining of articular cartilage (0=full stained cartilage, 3=totally unstained cartilage). Bone damage was defined as the extent and depth of the subchondral bone invasion by pannus. A total score was also generated from the sum of these four parameters (maximum 12).
# [2] = tested on: murine endotoxic shock model; test: murine endotoxic shock model (LPS), cytokines by ELISA; type: in vivo, mice
# [3] = tested on: IL-1 induced phosphorylation of ERK; test: IL-1 induced phosphorylation (activation) of ERK, Western blotting; type: cell-based, human; conditions: compound 5 50 μM alone; S112 cells, IL-1 0.1 ng/ml, 30 minutes
# Protocol: S112 human dermal fibroblasts cultured in RPMI (serum-free) medium were stimulated with recombinant human IL-1 0.1 ng/ml, as described herein, for 30 minutes, with or without the addition of dexamethasone 10^−9M or benzimidazol-2-one-5-pentanoate (compound 5) (50 μM). The phosphorylation (activation) of ERK was assessed using Western blotting with a mAb specific for the phosphorylated (activated) form of ERK. In brief, cells were disrupted by repeated aspiration through a 21-gauge needle. After incubation on ice for 10 min and microcentrifugation at 3000 rpm for 15 min (4° C.), the supernatants were removed, the protein concentration was determined, and the lysates were stored at −80° C. Equal amounts of cellular proteins were fractionated on 10% SDS-polyacrylamide electrophoresis gels and transferred to polyvinylidene difluoride membranes. Immunoblotting was performed using antibodies directed against phospho-p44/42 (ERK) and total p44142 according to the manufacturer's instructions. The intensity of ERK activation is proportional to the size and optical density (darkness) of the resulting blots. Total ERK blots serve as a loading control, such that changes in phosphorylated ERK represent changes in phosphorylation and not in total ERK protein.
# [4] = tested on: lymph node and splenic T cells; test: ex vivo antigen-specific T cell activation after in vivo treatment; design: species or system mice
# Excerpt: In vivo administration of such a compound might be expected to exert effects on T cell responsiveness even after the T cells have been removed from exposure to the compound, that is, if T cells were studied ex vivo after in vivo treatment with the MIF antagonist compound. To measure ex vivo antigen-specific T cell activation, draining lymph nodes from arthritic limbs or spleens were removed from mice with murine antigen induced arthritis, induced as above with mBSA, at day 28 after first immunisation and a single cell suspension prepared in DMEM containing 5% FCS and 0.05% 2-mercaptoethanol. 1×10^5 cells/200 μl were cultured in triplicate in the presence or absence of mBSA (0.1, 1.0, 10 μg/ml) in 96-well plates for 48 hours (37° C., 5% CO2.) The T cell proliferation response was determined by measuring ^3H-thymidine incorporation during the final 18 hr. The cells were harvested and radioactivity incorporation into the DNA was measured with a Wallac 1409 liquid scintillation counter. The means of each triplicate culture were calculated. Each experiment comprised at least three individual animals and the results presented represent the mean±SEM of groups of animals in each experiment. The percentage inhibition of T cell proliferation was calculated using the result of the […] incorporation of cells from compound-treated animals subtracted from the ^3H-thymidine incorporation of cells from vehicle-treated animals.
smiles,measurement,setting,value
CCCCCOC(=O)c1ccc2[nH]c(=O)[nH]c2c1 [Compound 5],total arthritis score,"[1]; FIG. 10a, p=0.0024",statistically significant reduction
same,severity of all individual parameters of arthritis,[1]; FIG. 10b,Statistically significant reductions
same,"Serum IL-6 at 6 h, LPS + cpd","[2]; IP injection 1 mg/kg at −1 h, LPS alone 215100",101000
same,"Serum IL-6 at 6 h, LPS + cpd","[2]; IP injection 5 mg/kg at −1 h, LPS alone 215100",108200
same,"Serum IL-6 at 6 h, LPS + cpd","[2]; IP injection 15 mg/kg at −24, −12, −1 h, LPS alone 261900",162800
same,ERK activation by IL-1,[3],not inhibited
same,ex vivo activation of lymph node T cells in response to mBSA,"[4]; FIG. 11a, vs vehicle",reduced proliferative responses
same,ex vivo splenic T cell proliferation in response to mBSA,"[4]; FIG. 11b, table 7, vs vehicle",inhibitory effect
same,% inhibition of ex vivo splenic T cell activation,[4]; [mBSA] 1 μg/mL,33%
same,% inhibition of ex vivo splenic T cell activation,[4]; [mBSA] 10 μg/mL,30%

# Source: US7709514B2, “Therapeutic molecules and methods-1” (Cortical Pty Ltd, priority 2002, dated 2010)
